# Marks after values point to notes of the source that are not given here.
# How the values were obtained:
# [1] = system: S. sanguis cells grown as a biofilm; conditions: 0.2% w/v, 5 minute exposure, biofilm in a CDFF; cited from earlier work
# [2] = 0.12% mouthwash, over a 12 week period; cited from earlier work
# six species oral biofilm = conditions: 0.2% w/v, 1 and 5 minutes of exposure; cited from earlier work
# S. mutans biofilms = test: Flow cell culture and CSLM analysis of 16 h S. mutans biofilms, single 10 min treatment; type: cell-based, Streptococcus mutans Ingbritt
# Method: (§1) Flowcell culture and CSLM analysis of monospecific biofilm The biofilm culture of S. mutans in flow cells was similar to that described by Wen et al. (2006) with several modifications. A 3-channel flow cell system (Stovall Life Science, Greensboro, N.C., USA) was modified with stopcocks for inoculation, testing and staining of the bacterial biofilms. All parts were assembled and 0.5% sodium hypochlorite was pumped in and left overnight. Sterile water (200 mL) was then used to flush the system prior to the addition of growth medium. The system was inoculated with 1 mL of an exponentially growing S. mutans Ingbritt culture diluted to a cell density of 1×10^7 cells/mL. The system was incubated for 1 h prior to constant flow (0.2 mL/min) of 25% ASM (ASM; 2.5 g/L type II porcine gastric mucin, 2.0 g/L bacteriological peptone, 2.0 g/L tryptone, 1.0 g/L yeast extract, 0.35 g/L NaCl, 0.2 g/L KCl, 0.2 g/L CaCl2 and 1 mg/L haemin, pH 7.0) supplemented with 2.5 mM DTT and 0.5 g/L sucrose.. After 16 h, 1 mL of purified glycosylated x-casein(106-169) (KCG); KCGP(f106-169); KCGPZ(f106-169) (KCGPZ(f106-169); 10 mg/mL KCGP(f106-169) and 20 mM ZnCl2); 20 mM ZnCl2; 0.1% chlorhexidine digluconate or sterile water was injected into each channel of the system and incubated for 10 min, the flow of 25% ASM was then resumed for 10 min prior to staining. For determination of the effects of treatments on early stage biofilms the system was incubated for 6 h after inoculation, treated with 1 mL of test solutions for 10 min and the flow of 25% ASM resumed for another 16 h to observe recovery of the biofilm. BacLight LIVE/DEAD stain (Molecular Probes) was then used to stain the biofilm in situ.
# (§2) Confocal laser scanning microscopy (CLSM) of the bacterial biofilms was carried out on a Meta 510 Confocal Microscope with an inverted stage (Zeiss). Horizontal (xy) optodigital sections, each 2 μm thick over the entire thickness of the biofilm (z) were imaged using a 63× objective at 512×512 pixel (0.28 μm per pixel), with each frame at 143.86 μm (x)×143.86 μm (y). To determine reproducibility across the biofilm 5 images at random positions were obtained at wavelengths of 488 nm and 568 nm for each channel and 3 biological replicates were used. All images obtained were analysed using Comstat software (Heydorn et al., 2000).
# (§3) Data treatment and statistical analyses. The biometric data were analyzed using a two-factor analysis of variance (ANOVA) model with treatment included as a fixed factor and experiment as a random blocking factor to investigate the effect of KCGP(f106-169), KCG, KCGPZ(f106-169), Zinc and chlorhexidine on established biofilms. If treatment differences were significant, post hoc comparisons of treatment differences were performed using the Tukey posttest. Model fits were checked by residual plots, normality was investigated using normal probability plots and the Kolmogorov-Smirnov test and homogeneity of error variances was tested using Levene's test. When the error variances were heterogeneous a natural logarithm transformation of the data was used to stabilize the treatment group variances. Treatments were then compared using ANOVA on the transformed data. The biometric data obtained from the experiments investigating the effect of KCGPZ(f106-169) on 6 h S. mutans biofilms was analysed using a Paired Samples T-Test. All analyses were conducted using SPSS statistical software (version 17.0, SPSS Inc., Chicago, Ill.).
# S. mutans biofilm = test: Early stage (6 h) S. mutans flow cell biofilms, 10 min treatment, 16 h recovery, CSLM; type: cell-based, Streptococcus mutans Ingbritt; design: key to Surface to biovolume ratio / Roughness coefficient (dimensionless, range: zero-infinity) / Biovolume / Average thickness: —: No significant amount of biofilms detected after 16 h recovery; conditions: 6 h biofilm
# Method: as §1, §2, §3
# [3] = 0.1% (Table 1), 16 h biofilm, single 10 min treatment
# [4] = 0.1%, 16 h biofilm, single 10 min treatment
# [5] = 0.1%, 16 h biofilm, single 10 min treatment, listed as Chlorhexidine digluconate
# [6] = 0.1% chlorhexidine digluconate, 10 min treatment
compound,measurement,setting,value
"[H]/N=C(\N/C(=N/[H])NCCCCCCNC(=N)NC(=N)Nc1ccc(Cl)cc1)Nc1ccc(Cl)cc1 [Chlorhexidine, chlorhexidine digluconate]",reduction in viable S. sanguis cells,[1],~2 log10
same,reduction of gingival inflammation,[2],25%
same,reduction of plaque accumulation,[2],28%
same,effect on six species oral biofilm,six species oral biofilm,no significant difference
same,reduction of average thickness,S. mutans biofilms; [3],59%
same,reduction of total biomass,S. mutans biofilms; [3],53%
same,Average thickness,S. mutans biofilms; [4],3.02 ± 0.66^a μm
same,Biovolume,S. mutans biofilms; [4],1.82 ± 0.60^a μm^3/μm^2
same,"Roughness coefficient (dimensionless, range: zero-infinity)",S. mutans biofilms; [4],1.51 ± 0.12^a
same,Surface to biovolume ratio,S. mutans biofilms; [4],2.36 ± 1.24^ab μm^2/μm^3
same,Average thickness,S. mutans biofilms; [5],Significant reduction
same,Biovolume,S. mutans biofilms; [5],Significant reduction
same,Surface to biovolume ratio,"S. mutans biofilms; 0.1%, 16 h biofilm, single 10 min treatment, listed as chlorhexidine",nonsignificant differences
same,"dead S. mutans cells by propidium iodide staining (BacLight Live/Dead, FIG. 5)","S. mutans biofilms; 16 h biofilm after treatment, qualitative",qualitatively higher number of dead S. mutans cells compared with KCG or KCGPZ(f106-169)
same,"disruption / inhibition of S. mutans biofilms, comparison between treatments in words","S. mutans biofilms; 16 h biofilm, single 10 min treatment, concentrations as in Table 1","not significantly different to those produced by ZnCl2, 2.4 mg/mL purified KCG or 10 mg/mL KCGP(f106-169)"
same,Average thickness,S. mutans biofilm; [6],—^b
same,Biovolume,S. mutans biofilm; [6],—^b
same,"Roughness coefficient (dimensionless, range: zero-infinity)",S. mutans biofilm; [6],—^b
same,Surface to biovolume ratio,S. mutans biofilm; [6],—^b
same,effect on early S. mutans biofilms in words,S. mutans biofilm; single 10 min treatment,"substantially reducing the biofilms, which had not recovered after 16 h"
[Cl-].[Cl-].[Zn+2] [ZnCl2],"Roughness coefficient (dimensionless, range: zero-infinity)","S. mutans biofilms; 20 mM, 16 h biofilm, single 10 min treatment",1.54 ± 0.07^ab
